The values below are quoted from earlier work in publication PMC10998826 (EJNMMI Research, 2024).

For this series the following is noted: active metabolite of sacubitril; cited from earlier work. The method, then: Sacubitril (AHU377) is a potent inhibitor of the NEP. The combination of sacubitril and the angiotensin-receptor blocker valsartan (Entresto®) is effective in reducing the risks of death and of hospitalization for heart failure and is approved for this indication in numerous countries. The highest blood plasma concentration of its active metabolite, LBQ657, is measured around two hours after oral intake.

On to `C[C@H](C[C@@H](Cc1ccc(-c2ccccc2)cc1)NC(=O)CCC(=O)O)C(=O)O` [LBQ657], for which the “Time of highest blood plasma concentration after oral intake” value is “around two”.
